Data taken from patent US20250367183A1, “SUBSTANCE FOR PROMOTING REGENERATION AND REPAIR OF ORGANS OF MAMMALS AND USE THEREOF” (INSTITUTE OF ZOOLOGY, CHINESE ACADEMY OF SCIENCES, priority 2022, published 2025).
Read-outs that look alike come from different tables or passages of the source.

Legend:
[1] = test system: 2 mm diameter mouse ear hole; assay: ear hole trauma mouse model, 2 mm diameter ear puncher; type: in vivo, C57BL/6 mice; details: for healing of 2 mm ear hole: ferroptosis/autophagy inhibitors 10-20 mg/kg, measured 21 days after damage, n≥8 (FIG. 3); for healing of the 2 mm ear hole: treated 21 days, vs Vehicle (FIG. 1B)
[2] = test system: 4 mm diameter mouse ear hole; parameters: species or system mice; details: in vivo
[3] = test system: overall protein translation; type: cell-based

O=C1OC(COc2ccccc2[N+](=O)[O-])CC1Cc1ccccc1 (stereo not shown) [3BDO]
healing of 2 mm ear hole [1]: Neither inhibitors of ferroptosis nor autophagy could promote the healing of the ear hole like CHX

COc1ccc(C[C@H]2NC[C@H](O)[C@H]2OC(C)=O)cc1 [Ani, anisomycin]
healing of the 2 mm ear hole ([1]; Ani 10 mg/kg): significantly promote the healing of the ear hole

Cc1cc(Nc2cc(Cl)nc(Oc3ccc([N+](=O)[O-])cc3)n2)n[nH]1 [Autophinib]
healing of 2 mm ear hole [1]: Neither inhibitors of ferroptosis nor autophagy could promote the healing of the ear hole like CHX

C[C@@H]1C[C@@H]([C@H](O)CC2CC(=O)NC(=O)C2)C(=O)[C@@H](C)C1 [CHX, 4-((R)-2-((1S,3S,5S)-3,5-dimethyl-2-oxocyclohexyl)-2-hydroxyethyl)piperidine-2,6-dione]
HE staining of auricle tissue ([1]; CHX 20 mg/kg (FIG. 1E)): the trauma had completely healed
HE staining of auricle tissue ([1]; CHX 20 mg/kg, 15th day after trauma (FIG. 1F)): healed the tissue after damage and formed granulation tissue
KI67 immunohistochemical staining of auricle tissue ([1]; CHX 20 mg/kg, 7 days, basal cells (FIG. 1G)): expressed a large amount of KI67
closure of 2 mm ear hole wound ([1]; CHX 20 mg/kg, 30 days (FIG. 1D)): completely closed
HE staining of auricle tissue, regenerated tissues ([1]; CHX 20 mg/kg, 180 days after ear hole closure (FIG. 1H)): regeneration of tissues and tissue derivatives such as hair follicles, glands, cartilage, muscles and blood vessels
healing of the 2 mm ear hole ([1]; CHX 20 mg/kg): significantly promote the healing of the ear hole
closure of 2 mm ear hole wound ([1]; CHX greater than 8 mg/kg, after three weeks of treatment (FIG. 1C)): completely closed
closure of 2 mm ear hole ([1]; each concentration of CHX, intraperitoneal, n≥8 (FIG. 1C)): promoted the closure of a 2 mm diameter of ear holes
healing effect by administration manner ([1]; oral gavage and intraperitoneal injection, 3 weeks (FIG. 1I)): different manners of administration had the effect of promoting regeneration
ISG gene expression (ISG genes; fibroblasts and macrophages): upregulate the expression of classical ISGs
wound area of 4 mm ear hole [2]: significantly reduced

Cn1nc(C(C)(C)C)cc1NC(=O)Nc1ccc(Oc2ccncc2)cc1 [MAPK13-IN-1]
HE staining of ear hole ([1]; MAPK13-IN-1 20 mg/kg (FIG. 9C)): the trauma was almost completely healed
Masson staining of ear hole ([1]; MAPK13-IN-1, 21 days of treatment (FIG. 9D)): Obvious regeneration of muscle fiber bundles was observed
ISG gene expression (ISG genes; FIG. 9B, cell type not given): promote the ISG gene expression

O=C1N[C@@H]2C(=C[C@H](O)[C@@H](O)[C@H]2O)c2cc3c(c(O)c21)OCO3 [Narciclasine]
regenerated tissues in closed ear holes (histochemical, Masson) ([1]; Narciclasine 1-3 mg/kg (FIG. 5F, 5G)): regenerate tissues and tissue derivatives such as hair follicles, glands, cartilage and muscles
healing of 2 mm ear holes ([1]; Narciclasine 1-3 mg/kg, intraperitoneal (FIG. 5D, 5E)): significantly promote the healing of 2 mm ear holes
inhibition of overall protein translation [3]: significantly inhibit the overall protein translation
ISG gene expression (ISG genes; fibroblasts and macrophages): significantly promoted the expression of ISG genes

O=C1N[C@H]2[C@H](O)[C@H](O)[C@@H](O)[C@H](O)[C@@H]2c2cc3c(c(O)c21)OCO3 [Pancratistatin]
HE and Masson staining of ear hole ([1]; mouse, in vivo): completely closed and identified as a regeneration event
closure of 2 mm ear hole ([1]; mouse, in vivo): the ear hole was completely closed
inhibition of overall protein translation [3]: significantly inhibit overall protein translation
ISG gene expression (ISG genes): significantly promote the ISG gene expression

O=C(Nc1ccc(C(O)(C(F)(F)F)C(F)(F)F)cc1)c1ccc(C(F)(F)F)cc1 [SR1078]
healing of ear holes ([1]; SR1078 1 mg/kg, 21 days after trauma, n≥7 (FIG. 10A)): significantly inhibited regeneration

O=S(=O)(Nc1ccc(C(O)(C(F)(F)F)C(F)(F)F)cc1)c1cccs1 [SR3335]
healing of ear holes ([1]; SR3335 10 mg/kg, 21 days after trauma, n≥7 (FIG. 10A)): promoted the ear holes
HE staining of ear hole ([1]; SR3335 (FIG. 10D)): the wound was almost completely healed
Masson staining of ear hole ([1]; SR3335, 21 days of treatment (FIG. 10E)): regeneration structures of cartilage, hair follicles, sebaceous glands (arrows), and muscles
ISG gene expression (ISG genes; fibroblasts and macrophages): promote the ISG gene expression

O=S(=O)(NCCN1CCNCC1)c1ccc(NC2CCCCC2)c(NCc2ccccc2)c1 [UAMC-3203]
healing of 2 mm ear hole [1]: Neither inhibitors of ferroptosis nor autophagy could promote the healing of the ear hole like CHX

B1: S100A8/A9: S100A8/A9 heterodimer (Biolegend, 765502), alarmin protein (protein, UniProt P05109 1-93; P06702 1-114, looked up)
Protein S100-A8: MLTELEKALNSIIDVYHKYSLIKGNFHAVYRDDLKKLLETECPQYIRKKGADVWFKELDINTDGAVNFQEFLILVIKMGVAAHKKSHEESHKE
Protein S100-A9: MTCKMSQLERNIETIINTFHQYSVKLGHPDTLNQGEFKELVRKDLQNFLKKENKNEKVIEHIMEDLDTNADKQLSFEEFIMLMARLTWASHEKMHEGDEGPGHHHKPGLGEGTP
healing of ear holes ([1]; S100A8/A9 12.5 μg/kg ip every two days, 35th day after damage (FIG. 8C)): significantly promoted the healing of the ear holes
complete closure of ear holes ([1]; S100A8/A9 12.5 μg/kg, 35th day after damage): one of the ear holes was completely closed
HE and Masson staining, regenerated structures ([1]; S100A8/A9 (FIG. 8D)): regeneration of various tissue structures, such as epidermis, dermis, hair follicles, glands, cartilage
ISG gene expression (ISG genes; 5 ng/ml, fibroblasts and macrophages (FIG. 8A, 8B)): significantly promote the ISG gene expression

B2: interferon (IFN) γ: cytokine interferon γ (protein, UniProt P01579 24-161, looked up)
Interferon gamma: QDPYVKEAENLKKYFNAGHSDVADNGTLFLGILKNWKEESDRKIMQSQIVSFYFKLFKNFKDDQSIQKSVETIKEDMNVKFFNSNKKKRDDFEKLTNYSVTDLNVQRKAIHELIQVMAELSPAAKTGKRKRSQMLFRG
healing of ear holes ([1]; IFNγ 50 μg/kg ip once every two days, 35th day after damage (FIG. 7C)): significantly promoted the healing of ear holes after damage
ISG gene expression (ISG genes; 10 ng/ml, fibroblasts and macrophages (FIG. 7A, 7B)): significantly promote the ISG gene expression
